Measured values from patent publication US10092633B2, “Newly identified peptides for use in the induction of oral tolerance in young mammals” (NESTEC S.A., priority 2013, dated 2018).

Key:
HLA-DR = experiment: peptides bound to HLA-DR on cells cultured with NAN-HA/BEBA-HA formula, isolated by immunoprecipitation and identified by LC-MS/MS; type: binding, human; settings: U937 and Thp1 cells incubated 24 hours with BEBA-HA; immunoprecipitation with clone L243; nano-LC-MSMS
Protocol: In a set of experiments detailed in Example 1, the present inventors identified the peptide sequences of BLG responsible for the induction of oral tolerance towards milk proteins, in particular BLG. In a first step, using a cellular based assay, partially hydrolyzed infant formula NAN HA™ (otherwise known as BEBE HA™) from Nestlé, was incubated with human cells expressing the Major Histocompatibility Complex (MHC) class II receptor, HLA-DR. As the first step in the induction of oral tolerance, the HLA receptor presents peptide sequences to the T cells, thereby inducing tolerance. Thus, development of tolerance is largely dependent on the recognition of the peptide sequence by the MHC.
Thus, in the current invention, the human cells expressing HLA-DR were cultured in the presence of NAN-HA™ formula (which had been verified to be non-toxic for the cells), the peptides that bound to the HLA receptor were isolated by immunoprecipitation, and then identified by mass spectrometry and amino acid sequencing.
The Thp1 and U937 cells were incubated in 20 mL RPMI-1640 medium with L-Glutamine (Sigma) supplemented with 10% heat-inactivated FCS (Amimed, Bioconcept) and Penicillin/Streptomycin (Sigma) at a concentration of 1×10^6 cells/mL in a T175 cm^2 (Falcon) with respectively 1 ug/mL and 100 ug/mL of BEBA-HA (Nestlé, Lot# L02680742AP) for a 24 hours period at 37° C. in presence of 5% CO2. Cells were spun down and harvested to perform immunoprecipitation of MHC-peptide complexes.
Briefly, for each condition tested (control without BEBA-HA, sample with BEBA-HA for both cell lines), 2×10^7 cells were resuspended in ice cold TBS and washed three times. […]
Before MS analysis, HLA-DR peptides were desalted using either reversed-phase C18 (The Nest group, USA) or mixed-mode OASIS (Waters, USA) desalting columns as described in the manufacturer's manual. After desalting, peptides were analyzed by nano-LC-MSMS using an in-house Magic C18 column (150×0.075 mm) for peptide separation (2-35% Acetontril/0.1% formaic acid in 30 minutes) coupled to an Orbitrap XL instrument. […]

[1] = system: oral tolerance to β-lactoglobulin; settings: previously identified as part of a longer peptide sequence in the earlier filing; cited from earlier work
[2] = system: BLG-specific IgE antibodies; experiment: experimental mouse model of sensitization to BLG: gavage, then i.p. sensitization, BLG-specific IgE in serum; type: in vivo, BALB/cJ mice; settings: gavage days 1, 2, 3, 8, 9 and 10 (0.22 μmole); i.p. native BLG on alum day 14; serum days 30-33; FIG. 1
Protocol: Mice were fed either native BLG or either synthetic peptide (84-106) or (25-107) by gavage on day 1, 2, 3, 8, 9 and 10. They were then sensitized by i.p. administration with native BLG on day 14. Serum IgE levels were measured between day 30 and 33.
Specific pathogen-free (SPF) BALB/cJ mice (3 to 4 weeks-old females, Centre d'Elevage René Janvier, Le Genest Saint-Isle, France) were housed in filtered cages under normal SPF husbandry conditions (autoclaved bedding and sterile water) and were acclimatized for two weeks before experiments. They were maintained on a diet deprived of animal protein, and in which BLG was not detected using specific sandwich immunoassays. All animal experiments were performed according to European Community rules of animal care, and with authorization 91-368 of the French Veterinary Services. […]
Groups of 6 or 7 mice were administered either 4 mg of native bovine BLG, or equivalent quantity (i.e. 0.22 μmole) of isolated synthetic BLG peptides. […]
The efficacy of mice sensitization was assessed by quantitative measurements of BLG-specific IgE antibodies on individual serum samples collected from the mice retro-orbital venous plexus under light anaesthesia (Isoflurane, Baxter) between days 30-33. Non-specific binding was determined using individual sera from 10 naive mice, and was deduced from the absorbance values measured with immune sera. […]

Substance	recognition by and binding to HLA-DR (identified among HLA-DR bound peptides) (HLA-DR)	induction of oral tolerance [1]	BLG-specific serum IgE level / tolerance induction compared to control (PBS) [2]
EVDDEALEK [peptide c, previously known tolerogenic BLG peptide, position 143-151, positive control]	identified by this method	inducers of oral tolerance	
IDALNENK [peptide a, previously known tolerogenic BLG peptide, position 100-107, positive control]	identified by this method	inducers of oral tolerance	
VLDTDY (SAEPEQ; UniProt P02754 126-131, looked up, fragment) [peptide b, previously known tolerogenic BLG peptide, position 110-115, positive control]	identified by this method	inducers of oral tolerance	
peptide (84-106): synthetic peptide corresponding to the bovine BLG sequence numbers 84-106 (MW 2731 Da) (IDALNENKVLVLDTDYKKYLLFC; UniProt P02754 100-122, looked up, fragment)			tendency towards a lower level of IgE
